This is an account of results in US20060276464A1, “Diarylsulfone sulfonamides and use thereof” (Wyeth, priority 2005, published 2006).

Where “and” joins values, the source holds several entries; their conditions need not be identical. Equal entries are not always repeated. Where two headings read alike, the source gives them in different places.

The target in assay [1] is T1, SFRP-1 (Homo sapiens, UniProt Q8N474).
T1 sequence (Q8N474 32-314): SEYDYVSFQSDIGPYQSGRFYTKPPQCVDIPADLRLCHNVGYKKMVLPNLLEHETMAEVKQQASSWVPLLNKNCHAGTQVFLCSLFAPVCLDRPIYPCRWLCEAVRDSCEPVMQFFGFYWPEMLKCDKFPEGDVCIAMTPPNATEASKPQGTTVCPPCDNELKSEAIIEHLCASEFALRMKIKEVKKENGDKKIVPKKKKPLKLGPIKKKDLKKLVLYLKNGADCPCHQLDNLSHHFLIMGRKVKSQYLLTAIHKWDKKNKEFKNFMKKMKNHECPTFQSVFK
Briefly: Fluorescence polarization binding assay (competitive displacement of a probe compound from SFRP-1).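 Further: test compound competes with a fluorescent probe held by SFRP-1, seen as a drop in probe anisotropy after incubation in darkness, with anisotropy as function of rising compound dose.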 To be noted: fluorescence anisotropy, 45 nM SFRP-1, 20 nM probe.

The target of assay [2] is T1, SFRP-1. Briefly: Cell-based assay for in vitro measurement of SFRP-1/SARP2 antagonist activity (U2OS cells co-transfected with 16x TCF-tk-Luciferase reporter, Wnt and hSFRP-1).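 Further: U2OS cells co-transfected with a TCF-tk luciferase reporter, a Wnt vector, hSFRP-1 or empty vector and CMV-βgal, luciferase luminescence read in cell lysates alongside βgal activity.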 To be noted: U2OS. (In general: Reporter assays use an easily measured gene product as a stand-in for the process of interest.)
Setting [3] is: read-out: Fold Induction with SFRP-1, Conc 15 μM, with SFRP-1, fold induction over SFRP-1 control, single dose.
Where [4] appears, read: read-out: Fold Induction without SFRP-1, Conc 15 μM, without SFRP-1, single dose.

As to `Cc1ccc(S(=O)(=O)c2ccccc2)cc1S(=O)(=O)NCCn1ccnc1` [Example 314, N-[2-(1H-imidazol-1-yl)ethyl]-2-methyl-5-(phenylsulfonyl)benzenesulfonamide], the IC50 at SFRP-1 [1] was found to be 1200 nM. Besides, the fold induction at 15 µM on SFRP-1 [2] (setting [3]) is 3.3; at SFRP-1 [2] (setting [4]), 1.3.

Take `CC(C)c1ccc(S(=O)(=O)c2ccc(F)cc2)cc1S(=O)(=O)NCCn1ccnc1` [Example 318, 5-[(4-fluorophenyl)sulfonyl]-N-[2-(1H-imidazol-1-yl)ethyl]-2-isopropylbenzenesulfonamide]: the IC50 on SFRP-1 [1] was 400 nM and 500 nM and 600 nM and 700 nM and 900 nM. The fold induction at 15 µM was determined as 3.9 on SFRP-1 [2] (setting [3]) and 1.1 on SFRP-1 [2] (setting [4]).

The compound `CC(C)c1ccc(S(=O)(=O)c2ccc(F)cc2)cc1S(=O)(=O)NCCCn1ccnc1` [Example 319, 5-[(4-fluorophenyl)sulfonyl]-N-[3-(1H-imidazol-1-yl)propyl]-2-isopropylbenzenesulfonamide] showed an IC50 at SFRP-1 [1] of 600 nM. Besides, the fold induction at 15 µM on SFRP-1 [2] (setting [3]) stood at 3.5; at SFRP-1 [2] (setting [4]), 1.1.

Turning to `CC(C)c1ccc(S(=O)(=O)c2ccc(F)cc2)cc1S(=O)(=O)NCCc1ccccn1` [Example 320, 5-[(4-fluorophenyl)sulfonyl]-2-isopropyl-N-(2-pyridin-2-ylethyl)benzenesulfonamide], the IC50 on SFRP-1 [1] was 900 nM. Moreover, the fold induction at 15 µM at SFRP-1 [2] (setting [3]) was determined as 2.8; on SFRP-1 [2] (setting [4]), 1.2.

For the compound `CC(C)c1ccc(S(=O)(=O)c2ccc(F)cc2)cc1S(=O)(=O)NC1CCOCC1` [Example 321, 5-[(4-fluorophenyl)sulfonyl]-2-isopropyl-N-tetrahydro-2H-pyran-4-ylbenzenesulfonamide], the IC50 at SFRP-1 [1] was 1000 nM. The fold induction at 15 µM on SFRP-1 [2] (setting [3]) came to 3.3; on SFRP-1 [2] (setting [4]) it was 1.2.

With `CC(C)c1ccc(S(=O)(=O)c2ccc(F)cc2)cc1S(=O)(=O)NCCC1CCOCC1` [Example 322, 5-[(4-fluorophenyl)sulfonyl]-2-isopropyl-N-(2-tetrahydro-2H-pyran-4-ylethyl)benzenesulfonamide], the IC50 at SFRP-1 [1] is 600 nM. Also, the fold induction at 15 µM at SFRP-1 [2] (setting [3]) was determined as 2.5; at SFRP-1 [2] (setting [4]), 1.1.

With `Cc1cc(C)c(S(=O)(=O)c2ccccc2)cc1S(=O)(=O)NCCn1ccnc1` [Example 324, N-[2-(1H-imidazol-1-yl)ethyl]-2,4-dimethyl-5-(phenylsulfonyl)benzenesulfonamide], the IC50 at SFRP-1 [1] came out at 900 nM. Besides, the fold induction at 15 µM is 3.2 on SFRP-1 [2] (setting [3]) and 0.9 on SFRP-1 [2] (setting [4]).

For `Cc1cc(C)c(S(=O)(=O)c2ccccc2)cc1S(=O)(=O)NCCC1CCOCC1` [Example 328, 2,4-dimethyl-5-(phenylsulfonyl)-N-(2-tetrahydro-2H-pyran-4-ylethyl)benzenesulfonamide], the IC50 at SFRP-1 [1] was determined as 3000 nM. Moreover, the values for the fold induction at 15 µM on SFRP-1 [2] (setting [3]) and at SFRP-1 [2] (setting [4]) were 2.6 and 1.1, respectively.

Take `Cc1cc(C)c(S(=O)(=O)c2ccc(F)cc2)cc1S(=O)(=O)NCCn1ccnc1` [Example 329, 5-[(4-fluorophenyl)sulfonyl]-N-[2-(1H-imidazol-1-yl)ethyl]-2,4-dimethylbenzenesulfonamide]: the IC50 at SFRP-1 [1] is 1000 nM. In addition, the values for the fold induction at 15 µM at SFRP-1 [2] (setting [3]) and on SFRP-1 [2] (setting [4]) were 2.9 and 0.9, respectively.

For the compound `Cc1ccc(S(=O)(=O)c2cc(Cl)cc(Cl)c2)cc1S(=O)(=O)NCCCn1ccnc1` [Example 344, 5-[(3,5-dichlorophenyl)sulfonyl]-N-[3-(1H-imidazol-1-yl)propyl]-2-methylbenzenesulfonamide], on SFRP-1 [1], the IC50 was 1400 nM. Moreover, the fold induction at 15 µM on SFRP-1 [2] (setting [3]) came to 2.2; at SFRP-1 [2] (setting [4]), 1.

In turn, `Cc1ccc(S(=O)(=O)c2ccc(NCCC#N)cc2)cc1S(=O)(=O)NCCCn1ccnc1` [Example 353, 5-({4-[(2-cyanoethyl)amino]phenyl}sulfonyl)-N-[3-(1H-imidazol-1-yl)propyl]-2-methylbenzenesulfonamide] displayed an IC50 at SFRP-1 [1] of 300 nM. In addition, the fold induction at 15 µM on SFRP-1 [2] (setting [3]) came out at 3.3; on SFRP-1 [2] (setting [4]), 1.1.

The compound `CC[C@H](C)[C@@H](CO)Nc1ccc(S(=O)(=O)c2ccc(C)c(S(=O)(=O)NCCCn3ccnc3)c2)cc1` [Example 354, 5-[(4-{[(1S,2S)-1-(hydroxymethyl)-2-methylbutyl]amino}phenyl)sulfonyl]-N-[3-(1H-imidazol-1-yl)propyl]-2-methylbenzenesulfonamide] yielded an IC50 on SFRP-1 [1] of 1400 nM. Besides, the fold induction at 15 µM worked out at 2.6 at SFRP-1 [2] (setting [3]) and 1 on SFRP-1 [2] (setting [4]).

With `CNc1ccc(S(=O)(=O)c2ccc(C)c(S(=O)(=O)NCCc3ccccn3)c2)cc1` [Example 356, 2-methyl-5-{[4-(methylamino)phenyl]sulfonyl)-N-(2-pyridin-2-ylethyl)benzenesulfonamide], at SFRP-1 [1], the IC50 came out at 1700 nM. For the same compound, the fold induction at 15 µM was determined as 2.5 at SFRP-1 [2] (setting [3]) and 1 on SFRP-1 [2] (setting [4]).

As for `CNc1ccc(S(=O)(=O)c2ccc(C(C)C)c(S(=O)(=O)NCCc3ccccn3)c2)cc1` [Example 357, 2-isopropyl-5-{[4-(methylamino)phenyl]sulfonyl}-N-(2-pyridin-2-ylethyl)benzenesulfonamide], the IC50 at SFRP-1 [1] was 300 nM. The results for the fold induction at 15 µM at SFRP-1 [2] (setting [3]) and on SFRP-1 [2] (setting [4]) were 4.2 and 1.1, respectively.

On to `CNc1ccc(S(=O)(=O)c2ccc(C(C)C)c(S(=O)(=O)NC3CCOCC3)c2)cc1` [Example 358, 2-isopropyl-5-{[4-(methylamino)phenyl]sulfonyl}-N-(tetrahydro-2H-pyran-4-yl)benzenesulfonamide], for which the IC50 at SFRP-1 [1] was determined as 600 nM. In addition, the fold induction at 15 µM on SFRP-1 [2] (setting [3]) is 2.9; at SFRP-1 [2] (setting [4]) it was 1.

`CNc1ccc(S(=O)(=O)c2ccc(C(C)C)c(S(=O)(=O)NCCC3CCOCC3)c2)cc1` [Example 359, 2-isopropyl-5-{[4-(methylamino)phenyl]sulfonyl}-N-[2-(tetrahydro-2H-pyran-4-yl)ethyl]benzenesulfonamide] registered an IC50 on SFRP-1 [1] of 800 nM. The values for the fold induction at 15 µM at SFRP-1 [2] (setting [3]) and on SFRP-1 [2] (setting [4]) were 2.7 and 0.9, respectively.

Take `Cc1ccc(S(=O)(=O)c2cccc(Cl)c2Cl)cc1S(=O)(=O)NCCCn1ccnc1` [Example 360, 5-[(2,3-dichlorophenyl)sulfonyl]-N-[3-(1H-imidazol-1-yl)propyl]-2-methylbenzenesulfonamide]: on SFRP-1 [1], the IC50 came out at 2000 nM. In addition, the fold induction at 15 µM on SFRP-1 [2] (setting [3]) worked out at 1.9; on SFRP-1 [2] (setting [4]), 0.9.

`Cc1ccc(S(=O)(=O)c2ccc(NCC3CC3)cc2)cc1S(=O)(=O)NCCCn1ccnc1` [Example 368, 5-({4-[(cyclopropylmethyl)amino]phenyl}sulfonyl)-N-[3-(1H-imidazol-1-yl)propyl]-2-methylbenzenesulfonamide] returned an IC50 at SFRP-1 [1] of 900 nM. Besides, the fold induction at 15 µM came to 2.5 on SFRP-1 [2] (setting [3]) and 1 on SFRP-1 [2] (setting [4]).

Compound `Cc1ccc(S(=O)(=O)c2ccc(NCc3ccccc3)cc2)cc1S(=O)(=O)NCCCn1ccnc1` [Example 370, 5-{[4-(benzylamino)phenyl]sulfonyl}-N-[3-(1H-imidazol-1-yl)propyl]-2-methylbenzenesulfonamide] yielded an IC50 on SFRP-1 [1] of 500 nM. Moreover, the fold induction at 15 µM on SFRP-1 [2] (setting [3]) was 1.8; on SFRP-1 [2] (setting [4]) it was 0.8.

Consider `Cc1ccc(S(=O)(=O)c2ccc(N[C@@H](C)C3CCCCC3)cc2)cc1S(=O)(=O)NCCCn1ccnc1` [Example 371, 5-[(4-{[(1S)-1-cyclohexylethyl]amino}phenyl)sulfonyl]-N-[3-(1H-imidazol-1-yl)propyl]-2-methylbenzenesulfonamide], for which, at SFRP-1 [1], the IC50 was found to be 7000 nM. The fold induction at 15 µM at SFRP-1 [2] (setting [3]) is 1.4; on SFRP-1 [2] (setting [4]), 0.8.

As for `Cc1ccc(S(=O)(=O)c2ccc(N[C@H](C)C3CCCCC3)cc2)cc1S(=O)(=O)NCCCn1ccnc1` [Example 372, 5-[(4-{[(1R)-1-cyclohexylethyl]amino}phenyl)sulfonyl]-N-[3-(1H-imidazol-1-yl)propyl]-2-methylbenzenesulfonamide], the IC50 at SFRP-1 [1] was 2000 nM and 2100 nM. Also, the results for the fold induction at 15 µM at SFRP-1 [2] (setting [3]) and at SFRP-1 [2] (setting [4]) were 2.2 and 0.9, respectively.

With `CCC(O)CNc1ccc(S(=O)(=O)c2ccc(C)c(S(=O)(=O)NCCCn3ccnc3)c2)cc1` (stereo not drawn) [Example 373, 5-({4-[(2-hydroxybutyl)amino]phenyl}sulfonyl)-N-[3-(1H-imidazol-1-yl)propyl]-2-methylbenzenesulfonamide], the IC50 at SFRP-1 [1] is 1100 nM. Moreover, the fold induction at 15 µM is 2.8 at SFRP-1 [2] (setting [3]) and 1 at SFRP-1 [2] (setting [4]).

For the compound `Cc1ccc(S(=O)(=O)c2ccc(Br)cc2)cc1S(=O)(=O)NCCc1ccccn1` [Example 381, 5-[(4-bromophenyl)sulfonyl]-2-methyl-N-(2-pyridin-2-ylethyl)benzenesulfonamide], the IC50 at SFRP-1 [1] worked out at 4000 nM. Further, the fold induction at 15 µM turned out to be 2.1 on SFRP-1 [2] (setting [3]) and 0.8 on SFRP-1 [2] (setting [4]).

`CCc1ccc(S(=O)(=O)c2ccc(F)cc2)cc1S(=O)(=O)NC(C)C(O)c1ccccc1` (stereo not drawn) [Example 392, 2-ethyl-5-[(4-fluorophenyl)sulfonyl]-N-[(trans)-2-hydroxy-1-methyl-2-phenylethyl]benzenesulfonamide] had an IC50 at SFRP-1 [1] of 4000 nM. Besides, the fold induction at 15 µM on SFRP-1 [2] (setting [3]) is 2.8; at SFRP-1 [2] (setting [4]), 1.

Compound `Cc1ccc(S(=O)(=O)c2ccccc2)cc1S(=O)(=O)NC1CCC1` [Example 398, N-cyclobutyl-2-methyl-5-(phenylsulfonyl)benzenesulfonamide] returned an IC50 at SFRP-1 [1] of 9000 nM. Moreover, the values for the fold induction at 15 µM at SFRP-1 [2] (setting [3]) and on SFRP-1 [2] (setting [4]) were 2.6 and 1.2, respectively.

A word on the IC50: it is the concentration at which inhibition is half-maximal. A higher IC50 goes with weaker potency in that assay.
